Results from US20200361895A1, “NOVEL SULFONAMIDE CARBOXAMIDE COMPOUNDS” (Inflazome Limited, priority 2017, published 2020).
Counter-ions that a name gives are not always drawn.

molecular target: NLRP3 (Homo sapiens, UniProt Q96P20); assay: THP-1 cells pyroptosis assay (LPS + nigericin, resazurin readout; THP IC50); assay type: cell-based; parameters: Seed THP-1 cells (25,000 cells/well) containing 1.0 μg/ml LPS in 40 μl of RPMI medium; host or cells: THP-1 cells
Protocol: THP-1 cells (ATCC #TIB-202) were grown in RPMI containing L-glutamine (Gibco #11835) supplemented with 1 mM sodium pyruvate (Sigma #S8636) and penicillin (100 units/ml)/streptomycin (0.1 mg/ml) (Sigma #P4333) in 10% Fetal Bovine Serum (FBS) (Sigma #F0804). The cells were routinely passaged and grown to confluency (˜10^6 cells/ml). On the day of the experiment, THP-1 cells were harvested and resuspended into RPMI medium (without FBS). The cells were then counted and viability (>90%) checked by Trypan blue (Sigma #T8154). Appropriate dilutions were made to give a concentration of 625,000 cells/ml. To this diluted cell solution was added LPS (Sigma #L4524) to give a 1 μg/ml Final Assay Concentration (FAC). 40 μl of the final preparation was aliquoted into each well of a 96-well plate. The plate thus prepared was used for compound screening.
The following method step-by-step assay was followed for compound screening. • 1. Seed THP-1 cells (25,000 cells/well) containing 1.0 μg/ml LPS in 40 μl of RPMI medium (without FBS) in 96-well, black walled, clear bottom cell culture plates coated with poly-D-lysine (VWR #734-0317) • 2. Add 5 μcompound (8 points half-log dilution, with 10 μM top dose) or vehicle (DMSO 0.1% FAC) to the appropriate wells • 3. Incubate for 3 hrs at 37° C. and 5% CO2 • 4. Add 5 μnigericin (Sigma #N7143) (FAC 5 μM) to all wells • 5. Incubate for 1 hr at 37° C. and 5% CO2 • 6. At the end of the incubation period, spin plates at 300×g for 3 mins and remove supernatant • 7. Then add 50 μl of resazurin (Sigma #R7017) (FAC 100 μM resazurin in RPMI medium without FBS) and incubate plates for a further 1-2 hrs at 37° C. and 5% CO2 • 8. Plates were read in an Envision reader at Ex 560 nm and Em 590 nm • 9. IC50 data is fitted to a non-linear regression equation (log inhibitor vs response-variable slope 4-parameters)

NLRP3, sequence (Q96P20 whole entry): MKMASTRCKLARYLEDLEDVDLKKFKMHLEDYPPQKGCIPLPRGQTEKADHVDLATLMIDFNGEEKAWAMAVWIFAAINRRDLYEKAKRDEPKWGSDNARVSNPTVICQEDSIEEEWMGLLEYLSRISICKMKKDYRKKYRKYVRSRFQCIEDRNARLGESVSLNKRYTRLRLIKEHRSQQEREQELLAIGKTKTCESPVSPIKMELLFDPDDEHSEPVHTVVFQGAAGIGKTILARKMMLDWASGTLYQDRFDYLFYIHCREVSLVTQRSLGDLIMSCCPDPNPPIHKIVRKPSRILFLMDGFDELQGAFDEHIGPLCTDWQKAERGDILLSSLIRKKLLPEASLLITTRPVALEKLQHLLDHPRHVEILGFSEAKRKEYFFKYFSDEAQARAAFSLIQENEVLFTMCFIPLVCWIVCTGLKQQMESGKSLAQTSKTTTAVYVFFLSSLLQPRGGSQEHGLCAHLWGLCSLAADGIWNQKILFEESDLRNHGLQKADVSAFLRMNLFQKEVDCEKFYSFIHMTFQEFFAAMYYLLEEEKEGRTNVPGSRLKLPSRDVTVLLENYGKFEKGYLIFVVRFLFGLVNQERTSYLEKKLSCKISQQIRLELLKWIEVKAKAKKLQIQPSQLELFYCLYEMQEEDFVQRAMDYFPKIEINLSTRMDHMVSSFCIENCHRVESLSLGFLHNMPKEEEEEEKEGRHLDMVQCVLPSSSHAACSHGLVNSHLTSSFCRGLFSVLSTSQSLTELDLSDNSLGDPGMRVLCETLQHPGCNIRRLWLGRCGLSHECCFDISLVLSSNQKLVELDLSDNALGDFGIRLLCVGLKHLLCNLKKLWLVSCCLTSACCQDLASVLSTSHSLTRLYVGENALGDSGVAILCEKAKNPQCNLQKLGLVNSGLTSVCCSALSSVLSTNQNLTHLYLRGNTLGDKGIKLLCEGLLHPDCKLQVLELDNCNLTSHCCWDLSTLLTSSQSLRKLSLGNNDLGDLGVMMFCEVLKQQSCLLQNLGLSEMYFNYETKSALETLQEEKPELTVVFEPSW

**Q.** `COc1cc(-c2ccc3ccncc3c2NC(=O)NS(=O)(=O)c2ccn(C(C)C)n2)ccn1` [Example 217, 1-Isopropyl-N-((7-(2-methoxypyridin-4-yl)isoquinolin-8-yl)carbamoyl)-1H-pyrazole-3-sulfonamide] was tested. Which IC50 did it give?
**A.** ≤ 10 µM

**Q.** Which IC50 does the source give for `COc1cc(-c2cc3c(cc2NC(=O)NS(=O)(=O)c2ccn(C4CC4)n2)CCC3)ccn1` [Example 144, 1-Cyclopropyl-N-((6-(2-methoxypyridin-4-yl)-2,3-dihydro-1H-inden-5-yl)carbamoyl)-1H-pyrazole-3-sulfonamide] here?
**A.** ≤ 5 µM

**Q.** For `COc1cc(-n2nc3c(c2NC(=O)NS(=O)(=O)c2cc(C(C)(C)O)co2)CCC3)ccn1` [Example 322, 4-(2-Hydroxypropan-2-yl)-N-((2-(2-methoxypyridin-4-yl)-2,4,5,6-tetrahydrocyclopenta[c]pyrazol-3-yl)carbamoyl)furan-2-sulfonamide], which IC50 is on record?
**A.** ≤ 5 µM

**Q.** How did the IC50 turn out when `Cc1ccc(-c2cc(F)cc(C(C)C)c2NC(=O)NS(=O)(=O)c2ccn(C(C)C)n2)cn1` [Example 15, N-((4-Fluoro-2-iso-propyl-6-(6-methylpyridin-3-yl)phenyl)carbamoyl)-1-iso-propyl-1H-pyrazole-3-sulfonamide, partial ammonium salt] was run?
**A.** ≤ 5 µM

**Q.** For `Cc1cc(-c2ccc3c(c2NC(=O)NS(=O)(=O)c2ccn(C(C)C)n2)CCC3)n(C)n1` [Example 220, N-((5-(1,3-Dimethyl-1H-pyrazol-5-yl)-2,3-dihydro-1H-inden-4-yl)carbamoyl)-1-isopropyl-1H-pyrazole-3-sulfonamide], which IC50 is on record?
**A.** ≤ 10 µM

**Q.** With `Cn1ccc(-c2ccc3c(c2NC(=O)NS(=O)(=O)c2ccn(C4CC4)n2)CCC3)cc1=O` [Example 272, 1-Cyclopropyl-N-((5-(1-methyl-2-oxo-1,2-dihydropyridin-4-yl)-2,3-dihydro-1H-inden-4-yl)carbamoyl)-1H-pyrazole-3-sulfonamide, sodium salt] as the compound, how does the IC50 read?
**A.** ≤ 5 µM

**Q.** With `CC(C)c1cc(F)cc(-c2cncs2)c1NC(=O)NS(=O)(=O)c1ccn(C(C)C)n1` [Example 6, N-((4-Fluoro-2-iso-propyl-6-(thiazol-5-yl)phenyl)carbamoyl)-1-iso-propyl-1H-pyrazole-3-sulfonamide] as the compound, how does the IC50 read?
**A.** ≤ 5 µM

**Q.** How did the IC50 turn out when `O=C(Nc1c(-c2ccncc2)cc(F)c2c1CCC2)NS(=O)(=O)c1nccnc1C(F)F` [Example 113, 3-(Difluoromethyl)-N-((7-fluoro-5-(pyridin-4-yl)-2,3-dihydro-1H-inden-4-yl)carbamoyl)pyrazine-2-sulfonamide] was run?
**A.** ≤ 5 µM

**Q.** For `O=C(Nc1c(-c2ccncc2)cc(F)c2c1CCC2)NS(=O)(=O)C1CN(Cc2cccnc2)C1` [Example 88, N-((7-Fluoro-5-(pyridin-4-yl)-2,3-dihydro-1H-inden-4-yl)carbamoyl)-1-(pyridin-3-ylmethyl)azetidine-3-sulfonamide], which IC50 is on record?
**A.** ≤ 1 µM

**Q.** `CCN1CCC(S(=O)(=O)NC(=O)Nc2c(-c3ccnc(OC)c3)cc(F)cc2C(C)C)CC1` [Example 100, 1-Ethyl-N-((4-fluoro-2-isopropyl-6-(2-methoxypyridin-4-yl)phenyl)carbamoyl)piperidine-4-sulfonamide, potassium salt] was tested. Which IC50 did it give?
**A.** ≤ 5 µM

**Q.** For `CC(C)c1cc(F)cc(-c2cncnc2)c1NC(=O)NS(=O)(=O)c1ccn(C(C)C)n1` [Example 18, N-((4-Fluoro-2-iso-propyl-6-(pyrimidin-5-yl)phenyl)carbamoyl)-1-iso-propyl-1H-pyrazole-3-sulfonamide], which IC50 is on record?
**A.** ≤ 1 µM

**Q.** With `COc1cc(-c2cc(F)cc(C(C)C)c2NC(=O)NS(=O)(=O)c2ccc(=O)n(C(C)C)c2)ccn1` [Example 90, N-((4-Fluoro-2-isopropyl-6-(2-methoxypyridin-4-yl)phenyl)carbamoyl)-1-isopropyl-6-oxo-1,6-dihydropyridine-3-sulfonamide] as the compound, how does the IC50 read?
**A.** ≤ 0.5 µM

**Q.** How did the IC50 turn out when `COc1cc(-c2cc(F)cc(C(C)C)c2NC(=O)NS(=O)(=O)Cc2ccccc2)ccn1` [Example 128, N-((4-Fluoro-2-isopropyl-6-(2-methoxypyridin-4-yl)phenyl)carbamoyl)-1-phenylmethanesulfonamide] was run?
**A.** ≤ 1 µM

**Q.** Which IC50 does the source give for `COc1cc(-c2ccc3c(c2NC(=O)NS(=O)(=O)c2ccc(C(=O)N(C)C)cc2)CCO3)ccn1` [Example 309, 4-(N-((5-(2-Methoxypyridyl-4-yl)-2,3-dihydrobenzofuran-4-yl)carbamoyl)sulfamoyl)-N,N-dimethylbenzamide, sodium salt] here?
**A.** ≤ 5 µM

**Q.** Which IC50 does the source give for `COc1cc(-c2cc(F)cc(C(C)C)c2NC(=O)NS(=O)(=O)c2cnc(N(C)C)cn2)ccn1` [Example 107, 5-(Dimethylamino)-N-((4-fluoro-2-isopropyl-6-(2-methoxypyridin-4-yl)phenyl)carbamoyl)pyrazine-2-sulfonamide] here?
**A.** ≤ 0.5 µM

**Q.** For `CCN1CC(S(=O)(=O)NC(=O)Nc2c(-c3ccnc(C#N)c3)cc(F)cc2C(C)C)C1` [Example 82, N-((2-(2-Cyanopyridin-4-yl)-4-fluoro-6-isopropylphenyl)carbamoyl)-1-ethylazetidine-3-sulfonamide], which IC50 is on record?
**A.** ≤ 10 µM

**Q.** How did the IC50 turn out when `CC(C)c1cc(F)cc(-c2ccnc(C#N)c2)c1NC(=O)NS(=O)(=O)Cc1ccccc1` [Example 127, N-((2-(2-Cyanopyridin-4-yl)-4-fluoro-6-isopropylphenyl)carbamoyl)-1-phenylmethanesulfonamide] was run?
**A.** ≤ 10 µM

**Q.** For `CC(C)c1cc(F)cc(-c2cnn(C)c2)c1NC(=O)NS(=O)(=O)c1ccn(C(C)C)n1` [Example 2, N-((4-Fluoro-2-iso-propyl-6-(1-methyl-1H-pyrazol-4-yl)phenyl)carbamoyl)-1-iso-propyl-1H-pyrazole-3-sulfonamide], which IC50 is on record?
**A.** ≤ 5 µM

**Q.** How did the IC50 turn out when `CC(C)c1cc(F)cc(-c2ccccc2)c1NC(=O)NS(=O)(=O)c1ccn(C(C)C)n1` [Example 4, N-((5-Fluoro-3-iso-propyl-[1,1′-biphenyl]-2-yl)carbamoyl)-1-iso-propyl-1H-pyrazole-3-sulfonamide] was run?
**A.** ≤ 5 µM

**Q.** Which IC50 does the source give for `CC(C)c1cc(F)cc(-c2ccnc(C#N)c2)c1NC(=O)NS(=O)(=O)N1CC2CCN(C)C2C1` (stereo not shown) [Example 319, N-((2-(2-Cyanopyridin-4-yl)-4-fluoro-6-isopropylphenyl)carbamoyl)-1-methylhexahydropyrrolo[3,4-b]pyrrole-5(1H)-sulfonamide] here?
**A.** ≤ 10 µM

**Q.** For `CC(C)c1cc(F)cc(-c2ccnc(C(F)(F)F)c2)c1NC(=O)NS(=O)(=O)c1ccn(C(C)C)n1` [Example 47, N-((4-Fluoro-2-isopropyl-6-(2-(trifluoromethyl)pyridin-4-yl)phenyl)carbamoyl)-1-isopropyl-1H-pyrazole-3-sulfonamide], which IC50 is on record?
**A.** ≤ 1 µM

**Q.** With `COc1cc(-c2cc(F)cc(C(C)C)c2NC(=O)NS(=O)(=O)C2CN(C(C)C)C2)ccn1` [Example 75, N-((4-Fluoro-2-isopropyl-6-(2-methoxypyridin-4-yl)phenyl)carbamoyl)-1-isopropylazetidine-3-sulfonamide] as the compound, how does the IC50 read?
**A.** ≤ 0.5 µM

**Q.** How did the IC50 turn out when `CCN1CCC(S(=O)(=O)NC(=O)Nc2c(-c3ccnc(OC)c3)cc(F)c3c2CCC3)CC1` [Example 97, 1-Ethyl-N-((7-fluoro-5-(2-methoxypyridin-4-yl)-2,3-dihydro-1H-inden-4-yl)carbamoyl)piperidine-4-sulfonamide, potassium salt] was run?
**A.** ≤ 5 µM

**Q.** With `CCN(CCCS(=O)(=O)NC(=O)Nc1c(-c2ccnc(C#N)c2)cc(F)cc1C(C)C)Cc1ccccc1` [Example 151, 3-(Benzyl(ethyl)amino)-N-((2-(2-cyanopyridin-4-yl)-4-fluoro-6-isopropylphenyl)carbamoyl)propane-1-sulfonamide] as the compound, how does the IC50 read?
**A.** ≤ 5 µM

**Q.** For `CC(C)c1cc(F)cc(-c2ccnn2C)c1NC(=O)NS(=O)(=O)c1ccn(C(C)C)n1` [Example 5, N-((4-Fluoro-2-iso-propyl-6-(1-methyl-1H-pyrazol-5-yl)phenyl)carbamoyl)-1-iso-propyl-1H-pyrazole-3-sulfonamide], which IC50 is on record?
**A.** ≤ 5 µM

**Q.** How did the IC50 turn out when `COc1cncc(-c2cc(F)cc(C(C)C)c2NC(=O)NS(=O)(=O)c2ccn(C(C)C)n2)c1` [Example 17, N-((4-Fluoro-2-iso-propyl-6-(5-methoxypyridin-3-yl)phenyl)carbamoyl)-1-iso-propyl-1H-pyrazole-3-sulfonamide, partial ammonium salt] was run?
**A.** ≤ 5 µM

**Q.** Which IC50 does the source give for `CCn1nc(S(=O)(=O)NC(=O)Nc2c(-c3cccc(OC)c3)ccc3c2CCC3)cc1CN(C)C` [Example 194, 5-((Dimethylamino)methyl)-1-ethyl-N-((5-(3-methoxyphenyl)-2,3-dihydro-1H-inden-4-yl)carbamoyl)-1H-pyrazole-3-sulfonamide] here?
**A.** ≤ 1 µM

**Q.** Which IC50 does the source give for `CC(C)c1cc(F)cc(-c2ccnc(C#N)c2)c1NC(=O)NS(=O)(=O)CCc1ccccc1` [Example 135, N-((2-(2-Cyanopyridin-4-yl)-4-fluoro-6-isopropylphenyl)carbamoyl)-2-phenylethanesulfonamide] here?
**A.** ≤ 1 µM
